Test results: patent US20230277630A1, “METHODS AND COMPOSITIONS FOR TREATING AMYOTROPHIC LATERAL SCLEROSIS” (Amylyx Pharmaceuticals, Inc., priority 2022, published 2023)
Several values for one entry are separate records, joined by “and”; a condition that tells them apart may be missing. Equal entries are not always repeated.

Assays:
MATE2K = MATE2K (Homo sapiens, UniProt Q86VL8); experiment: MATE2K inhibitor (IC50) assessment, metformin uptake in transfected HEK cells
MATE1 = target: T1, MATE1 (Homo sapiens, UniProt Q96FL8); experiment: MATE1 inhibitor (IC50) assessment, metformin uptake in transfected HEK cells
T1 sequence (Q96FL8 1-570): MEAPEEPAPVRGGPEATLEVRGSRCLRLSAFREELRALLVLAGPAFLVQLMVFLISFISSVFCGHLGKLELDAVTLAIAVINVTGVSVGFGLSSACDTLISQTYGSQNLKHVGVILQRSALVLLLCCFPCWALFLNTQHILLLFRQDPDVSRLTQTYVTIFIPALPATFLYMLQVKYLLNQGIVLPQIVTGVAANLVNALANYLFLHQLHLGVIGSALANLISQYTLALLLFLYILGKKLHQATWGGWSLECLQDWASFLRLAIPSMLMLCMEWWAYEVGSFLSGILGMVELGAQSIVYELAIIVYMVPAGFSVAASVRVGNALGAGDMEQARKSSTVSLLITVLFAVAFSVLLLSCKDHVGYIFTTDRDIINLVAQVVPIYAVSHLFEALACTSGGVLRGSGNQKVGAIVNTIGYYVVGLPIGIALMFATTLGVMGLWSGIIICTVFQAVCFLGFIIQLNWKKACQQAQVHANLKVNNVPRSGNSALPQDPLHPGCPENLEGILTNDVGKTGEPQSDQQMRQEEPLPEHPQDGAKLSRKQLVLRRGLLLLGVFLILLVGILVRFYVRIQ

OCT2 = target: T2, OCT2 (Homo sapiens, UniProt O15244); experiment: OCT2 inhibitor (IC50) assessment, MPP+ uptake in transfected HEK cells
T2 sequence (O15244 1-555): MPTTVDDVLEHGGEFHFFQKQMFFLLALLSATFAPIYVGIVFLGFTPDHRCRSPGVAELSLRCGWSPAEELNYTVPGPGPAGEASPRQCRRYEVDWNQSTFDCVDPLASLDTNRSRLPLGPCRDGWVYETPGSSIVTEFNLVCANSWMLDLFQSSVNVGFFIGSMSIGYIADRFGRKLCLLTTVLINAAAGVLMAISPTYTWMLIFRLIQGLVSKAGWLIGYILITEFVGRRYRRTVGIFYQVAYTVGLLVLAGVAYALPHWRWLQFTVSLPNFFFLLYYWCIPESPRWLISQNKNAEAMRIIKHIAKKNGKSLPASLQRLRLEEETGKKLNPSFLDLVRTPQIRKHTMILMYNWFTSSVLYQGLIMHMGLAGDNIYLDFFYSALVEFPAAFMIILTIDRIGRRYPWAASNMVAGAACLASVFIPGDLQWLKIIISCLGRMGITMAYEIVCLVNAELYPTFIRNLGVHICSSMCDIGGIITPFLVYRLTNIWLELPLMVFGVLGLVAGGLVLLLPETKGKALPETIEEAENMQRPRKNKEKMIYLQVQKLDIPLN

P-gp and BCRP = P-gp and BCRP substrate assessment, bidirectional permeability in C2BBe1 cells; details: C2BBe1 cells, 10 μM probe; for recovery at 10 μM / Papp A→B at 10 µM / Papp B→A at 10 µM: human; for Papp A→B at 10 µM / Papp B→A at 10 µM: Caco-2, pH 7.4, probe digoxin (P-gp), cladribine (BCRP); for Papp A→B at 10 µM: AP-to-BL Papp; for Papp B→A at 10 µM: BL-to-AP Papp
Protocol: The P-gp and BCRP substrate assessment was conducted in C2BBe1 cell monolayers. […] LY was co-dosed with each dosing solution at a nominal concentration of 200 μM.
The cell culture medium was aspirated, and the cell monolayers were rinsed once with HBSSg_7.4. […] For receiver samples, aliquots (300 μL) were taken at pre-selected time points. […] For donor samples, aliquots (50 μL) were taken at pre-selected time points without replacement.

[1] = CYP reaction phenotyping: CYP control (negative control without CYP enzymes); details: 20 min, pH 7.4
Protocol: The reaction was initiated by the addition of NADPH, followed by incubation at 37° C.

[2] = 50 μM Metformin alone, 10 min, HBSSg_8.5, replicates 1, 2 and Average
[3] = absence of TUDCA and PB or positive inhibitor
[4] = 50 μM Metformin alone, 10 min, HBSSg_8.5, replicates and Average
[5] = 5 μM MPP+ alone, 2 min, replicates 1, 2 and Average
[6] = batch used with Sol_1, Sol_3, and Sol_4, single replicates
[7] = batch used with Sol_2, single replicates

MATE2K, sequence (Q86VL8 1-566 isoform Q86VL8-3): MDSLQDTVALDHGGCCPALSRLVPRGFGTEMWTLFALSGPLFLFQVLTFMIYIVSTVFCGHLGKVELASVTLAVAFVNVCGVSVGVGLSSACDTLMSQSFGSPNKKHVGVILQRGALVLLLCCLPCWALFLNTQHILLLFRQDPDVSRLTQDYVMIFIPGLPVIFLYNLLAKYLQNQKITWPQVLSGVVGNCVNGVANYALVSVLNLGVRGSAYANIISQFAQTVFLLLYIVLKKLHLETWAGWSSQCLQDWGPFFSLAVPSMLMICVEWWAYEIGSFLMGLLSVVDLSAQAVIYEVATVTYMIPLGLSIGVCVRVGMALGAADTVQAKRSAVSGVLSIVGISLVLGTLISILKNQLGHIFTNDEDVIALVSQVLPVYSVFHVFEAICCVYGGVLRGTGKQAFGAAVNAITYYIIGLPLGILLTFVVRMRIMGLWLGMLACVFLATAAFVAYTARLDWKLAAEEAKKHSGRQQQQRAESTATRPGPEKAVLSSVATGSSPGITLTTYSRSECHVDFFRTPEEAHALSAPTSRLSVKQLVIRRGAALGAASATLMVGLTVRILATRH

## CN(C)C(=N)N=C(N)N [metformin]
MATE2K; 50 μM Metformin alone
  Net Influx Rate of Metformin (MATE2K): 36.1 pmol/mg protein/minute
  influx rate ratio of metformin (MATE2K over vector control): 2.70
MATE2K; [2]
  Influx Rate of Metformin, MATE2K HEK Cells: 54.5 pmol/mg protein/minute and 60.2 pmol/mg protein/minute
  Influx Rate of Metformin, Vector Control Cells: 19.6 pmol/mg protein/minute and 22.8 pmol/mg protein/minute
MATE2K; [3]
  influx rate ratio of metformin (MATE2K over vector control): 2.70
MATE1; 50 μM Metformin alone
  Net Influx Rate of Metformin (MATE1): 572 pmol/mg protein/minute
  influx rate ratio of metformin (MATE1 over vector control): 43.4
MATE1; [4]
  Influx Rate of Metformin, MATE1-HEK Cells: 515 pmol/mg protein/minute and 656 pmol/mg protein/minute
  Influx Rate of Metformin, Vector Control Cells: 15.6 pmol/mg protein/minute and 11.3 pmol/mg protein/minute
MATE1; [3]
  influx rate ratio of metformin (MATE1 over vector control): 43.4

## C[n+]1ccc(-c2ccccc2)cc1 [MPP+, 1-methyl-4-phenylpyridinium]
OCT2; 5 μM MPP+ alone
  Net Influx Rate of MPP+ (OCT2): 847 pmol/mg protein/minute
OCT2; 5 μM MPP+ alone, 2 min
  influx rate ratio of MPP+ (OCT2 over vector control): 48.9
OCT2; [5]
  Influx Rate of MPP+, OCT2-HEK Cells: 896 pmol/mg protein/minute and 833 pmol/mg protein/minute
  Influx Rate of MPP+, Vector Control Cells: 19.0 pmol/mg protein/minute and 16.3 pmol/mg protein/minute
OCT2; absence of TUDCA and PB or imipramine
  influx rate ratio of MPP+ (OCT2 over vector control): 48.9

## C[C@H]1O[C@@H](O[C@H]2[C@@H](O)C[C@H](O[C@H]3[C@@H](O)C[C@H](O[C@H]4CC[C@@]5(C)[C@H](CC[C@@H]6[C@@H]5C[C@@H](O)[C@]5(C)[C@@H](C7=CC(=O)OC7)CC[C@]65O)C4)O[C@@H]3C)O[C@@H]2C)C[C@H](O)[C@@H]1O [digoxin]
P-gp and BCRP; [6]
  AP-to-BL Papp: 0.350 10^−6 cm/s and 0.234 10^−6 cm/s
  AP-to-BL Recovery: 95.3%
  BL-to-AP Papp: 14.6 10^−6 cm/s and 11.2 10^−6 cm/s
  BL-to-AP Recovery: 94.9% and 83.1%
  Papp A→B at 10 µM: 0.326 ×10⁻⁶ cm/s
  Papp B→A at 10 µM: 12.1 ×10⁻⁶ cm/s
P-gp and BCRP; [7]
  AP-to-BL Papp: 0.381 10^−6 cm/s and 0.298 10^−6 cm/s
  AP-to-BL Recovery: 92.4%
  BL-to-AP Papp: 12.1 10^−6 cm/s and 12.8 10^−6 cm/s
  BL-to-AP Recovery: 96.7% and 90.2%
  Papp A→B at 10 µM: 0.323 ×10⁻⁶ cm/s
  Papp B→A at 10 µM: 13.5 ×10⁻⁶ cm/s
P-gp and BCRP; Caco-2, pH 7.4, AP-to-BL Recovery, batch used with Sol_1, Sol_3, and Sol_4, Average
  recovery at 10 μM: 89.5%
P-gp and BCRP; Caco-2, pH 7.4, AP-to-BL Recovery, batch used with Sol_1, Sol_3, and Sol_4, single replicates
  recovery at 10 μM: 90.9%
P-gp and BCRP; Caco-2, pH 7.4, AP-to-BL Recovery, batch used with Sol_2, Average
  recovery at 10 μM: 86.3%
P-gp and BCRP; Caco-2, pH 7.4, AP-to-BL Recovery, batch used with Sol_2, single replicates
  recovery at 10 μM: 77.9%
P-gp and BCRP; Caco-2, pH 7.4, BL-to-AP Recovery, batch used with Sol_1, Sol_3, and Sol_4, Average
  recovery at 10 μM: 87.4%
P-gp and BCRP; Caco-2, pH 7.4, BL-to-AP Recovery, batch used with Sol_1, Sol_3, and Sol_4, single replicates
  recovery at 10 μM: 84.1%
P-gp and BCRP; Caco-2, pH 7.4, BL-to-AP Recovery, batch used with Sol_2, Average
  recovery at 10 μM: 92.1%
P-gp and BCRP; Caco-2, pH 7.4, BL-to-AP Recovery, batch used with Sol_2, single replicates
  recovery at 10 μM: 89.5%
P-gp and BCRP; batch used with Sol_2, Average
  Papp A→B at 10 µM: 0.334 ×10⁻⁶ cm/s
  Papp B→A at 10 µM: 12.8 ×10⁻⁶ cm/s
P-gp and BCRP; batch used with Sol_1, Sol_3, and Sol_4, Average
  Papp B→A at 10 µM: 12.6 ×10⁻⁶ cm/s

## CCN(CC)Cc1cc(Nc2ccnc3cc(Cl)ccc23)ccc1O [Amodiaquine]
[1]
  Measured Metabolite: 0 µM

## CN/C(=N/CCSCc1nc[nH]c1C)NC#N [cimetidine]
MATE1; 50 μM Metformin + 100 μM Cimetidine
  Percentage Inhibition of MATE1: 99.2%
MATE1; known inhibitor
  inhibition of metformin uptake in MATE1-transfected cells: 99.2%
